Data as given in ChEMBL document CHEMBL3085731, “Novel water-soluble prodrugs of acyclovir cleavable by the dipeptidyl-peptidase IV (DPP IV/CD26) enzyme” (Eur J Med Chem, 2013).
Values after ≈ are worked out from the molar mass of the structure shown. Residues, ends and D or L forms follow the SMILES beside them. *: point of attachment. X1 = O=c1[nH]c(N*)nc2c1ncn2COCCO

Key:
Human alphaherpesvirus 2 = assay: Antiviral activity against Herpes simplex virus 2 G infected in HEL cells assessed as inhibition of virus-induced cytopathicity; format: functional, organism-based; settings: Human alphaherpesvirus 2, strain G
Human alphaherpesvirus 1 [1] = assay: Antiviral activity against Herpes simplex virus 1 KOS infected in HEL cells assessed as inhibition of virus-induced cytopathicity; format: functional, organism-based; settings: Human alphaherpesvirus 1, KOS
Human alphaherpesvirus 1 [2] = assay: Antiviral activity against thymidine kinase-deficient ACV-resistant Herpes simplex virus 1 KOS infected in HEL cells assessed as inhibition of virus-induced cytopathicity; format: functional, organism-based; settings: Human alphaherpesvirus 1, KOS
[3] = Chemical stability of the compound in sodium phosphate buffer at pH 3.2 after 6 hrs; format: physicochemical; settings: pH 3.2, 6 h
Dipeptidyl peptidase 4 [4] = target: T1, Dipeptidyl peptidase 4 (Homo sapiens, UniProt P27487); assay: Prodrug conversion assessed as dipeptidyl peptidase 4-mediated ACV formation in human serum at 50 uM after 1 hr by HPLC analysis; format: ADME
T1 sequence (P27487 whole entry): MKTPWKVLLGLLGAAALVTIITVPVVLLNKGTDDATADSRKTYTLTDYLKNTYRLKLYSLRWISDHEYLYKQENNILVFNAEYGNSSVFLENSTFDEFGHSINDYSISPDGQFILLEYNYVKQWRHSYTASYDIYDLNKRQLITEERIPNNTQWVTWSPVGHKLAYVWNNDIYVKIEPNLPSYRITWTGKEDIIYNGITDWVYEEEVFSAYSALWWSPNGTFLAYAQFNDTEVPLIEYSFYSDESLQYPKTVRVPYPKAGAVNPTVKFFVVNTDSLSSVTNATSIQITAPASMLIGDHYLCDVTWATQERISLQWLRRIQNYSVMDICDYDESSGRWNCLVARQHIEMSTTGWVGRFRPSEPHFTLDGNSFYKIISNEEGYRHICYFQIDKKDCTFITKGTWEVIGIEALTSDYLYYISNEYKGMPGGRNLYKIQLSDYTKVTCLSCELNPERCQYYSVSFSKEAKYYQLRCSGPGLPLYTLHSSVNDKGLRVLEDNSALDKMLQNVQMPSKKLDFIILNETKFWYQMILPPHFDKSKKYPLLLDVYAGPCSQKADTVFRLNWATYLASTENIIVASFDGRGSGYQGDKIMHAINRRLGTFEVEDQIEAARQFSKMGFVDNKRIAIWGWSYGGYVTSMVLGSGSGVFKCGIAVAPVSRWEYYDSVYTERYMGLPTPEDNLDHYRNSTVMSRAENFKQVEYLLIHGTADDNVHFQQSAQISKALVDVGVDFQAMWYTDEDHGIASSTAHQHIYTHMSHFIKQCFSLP

Dipeptidyl peptidase 4 [5] = target: T1, Dipeptidyl peptidase 4; assay: Prodrug conversion assessed as dipeptidyl peptidase 4-mediated ACV formation in human serum at 50 uM after 24 hrs by HPLC analysis; format: ADME
[6] = Prodrug conversion in PBS buffer assessed as ACV formation at 50 uM after 24 hrs by HPLC analysis; format: ADME
[7] = Solubility of the compound in deionized water at pH 5.5 after overnight incubation by HPLC analysis; format: physicochemical
[8] = Oral bioavailability in human; format: ADME, organism-based; settings: in vivo
Dipeptidyl peptidase 4 [9] = target: T1, Dipeptidyl peptidase 4; assay: Prodrug conversion assessed as human dipeptidyl peptidase 4-mediated Val-ACV formation at 50 uM after 24 hrs by HPLC analysis; format: ADME; settings: isolated protein
Dipeptidyl peptidase 4 [10] = target: Dipeptidyl peptidase 4 (Bos taurus, UniProt P81425); assay: Prodrug conversion assessed as dipeptidyl peptidase 4-mediated ACV formation in bovine serum at 50 uM after 2 hrs by HPLC analysis; format: ADME; settings: cattle
Sequence of Dipeptidyl peptidase 4 (Bos taurus, UniProt P81425) (P81425 whole entry): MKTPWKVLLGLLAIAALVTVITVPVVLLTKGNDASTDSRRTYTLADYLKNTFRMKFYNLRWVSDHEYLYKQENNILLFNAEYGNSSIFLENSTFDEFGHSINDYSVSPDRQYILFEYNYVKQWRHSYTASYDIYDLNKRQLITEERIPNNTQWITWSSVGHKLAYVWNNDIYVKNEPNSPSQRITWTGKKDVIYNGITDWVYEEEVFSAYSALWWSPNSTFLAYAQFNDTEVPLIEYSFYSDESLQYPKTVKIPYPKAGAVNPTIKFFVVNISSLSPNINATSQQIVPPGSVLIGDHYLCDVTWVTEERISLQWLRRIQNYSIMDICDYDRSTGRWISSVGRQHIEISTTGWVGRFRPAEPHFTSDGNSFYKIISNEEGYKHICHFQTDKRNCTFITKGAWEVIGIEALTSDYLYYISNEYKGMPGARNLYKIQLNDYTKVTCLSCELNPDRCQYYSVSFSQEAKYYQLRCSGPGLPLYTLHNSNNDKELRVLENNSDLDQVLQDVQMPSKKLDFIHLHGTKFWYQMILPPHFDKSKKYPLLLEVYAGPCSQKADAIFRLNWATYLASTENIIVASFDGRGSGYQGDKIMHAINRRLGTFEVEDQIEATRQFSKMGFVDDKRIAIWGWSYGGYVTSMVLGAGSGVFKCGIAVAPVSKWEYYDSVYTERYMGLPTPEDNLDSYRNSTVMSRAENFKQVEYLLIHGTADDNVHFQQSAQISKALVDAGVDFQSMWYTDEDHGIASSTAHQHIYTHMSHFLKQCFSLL

Dipeptidyl peptidase 4 [11] = target: T1, Dipeptidyl peptidase 4; assay: Prodrug conversion assessed as dipeptidyl peptidase 4-mediated ACV formation in human serum at 50 uM after 2 hrs by HPLC analysis; format: ADME
[12] = Prodrug conversion in PBS buffer assessed as ACV formation at 50 uM after 2 hrs by HPLC analysis; format: ADME

Compound | EC50 (Human alphaherpesvirus 2) [µM] | EC50 (Human alphaherpesvirus 1 [1]) [µM] | EC50 (Human alphaherpesvirus 1 [2]) [µM] | Stability [3] | Drug metabolism (Dipeptidyl peptidase 4 [4]) | Drug metabolism (Dipeptidyl peptidase 4 [5]) | Drug metabolism [6] | solubility [7] [mg/mL] | bioavailability [8] [%] | Drug metabolism (Dipeptidyl peptidase 4 [9]) | Drug metabolism (Dipeptidyl peptidase 4 [10]) | Drug metabolism (Dipeptidyl peptidase 4 [11]) | Drug metabolism [12]
CC(C)[C@H](N)C(=O)N1CCC[C@H]1C(=O)N[C@H](C(=O)N1CCC[C@H]1C(=O)Nc1nc2c(ncn2COCCO)c(=O)[nH]1)C(C)C (H-VPVP-X1) | 4.9 | 1.8 | 73 | Stable | Active | Active | Active | 22.9 (≈ 37 mM) |  |  |  |  | 
Nc1nc2c(ncn2COCCO)c(=O)[nH]1 [ACYCLOVIR] | 0.5 |  | 18 |  |  |  |  | 1.29 (≈ 5.73 mM) | 10 |  |  |  | 
CC(C)[C@H](N)C(=O)N1CCC[C@H]1C(=O)N[C@H](C(=O)OCCOCn1cnc2c(=O)[nH]c(N)nc21)C(C)C | 1.6 | 0.6 | 32 | Stable |  |  | Not Active | 12.2 (≈ 23.4 mM) |  | Active |  |  | 
CC(C)[C@H](N)C(=O)OCCOCn1cnc2c(=O)[nH]c(N)nc21 [VALACYCLOVIR] |  |  |  |  |  |  |  |  |  |  | Active | Active | Active
